This test relates to A15T3 dsDNA (DNA, duplex) AAAAAAAAAAAAAAATCGTCGTCGTCGTCGTCGAAAAAAAAAAAAAAAAAGCAGTTGATCGTTTGGATACCCTGG/TTCGACGACGACGACGACGATTT
The test is described as follows: fluorescence quenching, log[(F0-F)/F] against log[DNA]. The conditions noted are these: unit not given; free DNA presumed to be A15T3 dsDNA; buffer of titration not stated.

The structures appear in SMILES notation.

The compound `COc1cccc2c1C(=O)c1c(O)c3c(c(O)c1C2=O)C[C@@](O)(C(=O)CO)C[C@@H]3O[C@H]1C[C@H](N)[C@H](O)[C@H](C)O1` had a K of 0.026.
